# Experiment: Henry solubility constant Hcp at 298.15 K (mol/(m3 Pa))
# Settings: reference: Lee et al. (2012)
row,Structure (SMILES),Henry solubility constant Hcp
1,"c1ccc2c(c1)Cc1ccccc1-2 [2,3-benzindene]",0.32
2,c1ccc2cc3ccccc3cc2c1 [anthracene],0.16
3,CCCCOC(=O)c1ccccc1C(=O)OCc1ccccc1 [butyl benzyl phthalate],100
4,c1cc2c3c(cccc3c1)CC2 [acenaphthene],0.26
5,c1ccc2c(c1)ccc1c3ccccc3ccc21 [chrysene],2.1
6,CC(=O)c1c(C)c([N+](=O)[O-])c(C(C)(C)C)c([N+](=O)[O-])c1C [musk ketone],3
7,"Clc1cc(Cl)c(Cl)cc1Cl [1,2,4,5-tetrachlorobenzene]",0.0066
8,c1ccc2cc3c(cc2c1)-c1cccc2cccc-3c12 [benzo[k]fluoranthene],10
9,c1ccc2c(c1)cc1ccc3cccc4ccc2c1c34 [benzo[a]pyrene],6.2
10,"Clc1cccc(Cl)c1Cl [1,2,3-trichlorobenzene]",0.008
11,c1ccc2c(c1)ccc1ccccc12 [phenanthrene],0.18
12,CCCCOC(=O)c1ccccc1C(=O)OCCCC [dibutyl phthalate],9.3
13,"Cc1c([N+](=O)[O-])c(C)c([N+](=O)[O-])c(C(C)(C)C)c1[N+](=O)[O-] [2,4,6-trinitro-1,3-dimethyl-5-tert-butylbenzene]",0.32
14,c1ccc2ccccc2c1 [naphthalene],0.06
15,c1ccc2c(c1)-c1cccc3cccc-2c13 [benzo[jk]fluorene],0.34
